# Reference: patent US11992011B2, “Compounds for controlling plant pathogens” (VIB VZW, priority 2017, dated 2024)
# How the values were obtained:
# [1] = tested on: wheat; experiment: Phytotoxicity of foliar spray in uninfected wheat (Example 1); assay type: in vivo, Triticum aestivum; conditions: 500 μM foliar spray, 8 plants per treatment
# Experimental: (§1) For Examples 1, 5 and 10, seeds of the winter wheat cultivar Sahara (Aveve Agrarisch, Landen, Belgium) were used. Seeds were washed in a 10% ethanol solution to remove any residual traces of fungicide and then germinated on wet paper at room temperature for four days; seeds were transferred to SAP tubes and placed in a growth chamber (25° C., 16 hours per day of light). Plants were watered with 8 ml of half-strength Hoagland solution every two days for the first ten days and with 8 ml of full strength Hoagland solution every two days afterwards.
# (§2) Unless otherwise mentioned, all chemicals for nematode experiments were applied as a foliar spray consisting of the target compound at a concentration of 300 μM together with 0.1% (v/v) Tween 20 surfactant (Calbiochem) in distilled water. Again unless otherwise mentioned, all treatments for the nematode experiments were carried out three times: one and eight days before pathogen inoculation and seven days after pathogen inoculation. In all cases, plants were sprayed until run-off with an atomizer.
# (§3) Short-term phytotoxicity experiments (Example 1) were analyzed using non-parametric methods. For each variable, overall significance was determined using the Kruskal-Wallis test (Kruskal and Wallis, 1952), followed by a posthoc Conover-Iman test (Conover and Iman, 1981) with Hommel multiplicity correction (Hommel, 1988) if the Kruskal-Wallis test was significant. When only two groups were present, the Wilcoxon-Mann-Whitney test was used (Mann and Whitney, 1947).
# (§4) To test whether C4H inhibitors induce phytotoxic effects in crops, uninfected tomato, wheat and carrot were treated with piperonylic acid (PA), 4-iodobenzoic acid (4-IBA) and piperic acid (PIA) at a concentration of 500 μM through foliar application. At harvest, leaf area (or shoot length in the case of wheat) and primary root length were recorded. The BBCH developmental stage (Lancashire et al., 1991), a measure of developmental retardation, was used to test for effects on development. Finally, the presence of visible signs of phytotoxicity such as chlorosis, discoloration or necrosis was recorded.
# [2] = tested on: OsGNS5; experiment: qRT-PCR in rice roots, OsGNS5 (Example 20); assay type: in vivo, Oryza sativa; conditions: rice cv. Bomba root tissue; same samples as Example 19
# Experimental: After quality control, qPCR was carried out.
# To test whether other defense hormones might be involved, genes responsive to jasmonic acid (the biosynthesis gene OsAOS2) and auxin (the auxin conjugating enzyme OsGH3.1) were investigated. Moreover, the callose-degrading enzyme OsGNS5, downregulation of which is associated with basal defense, was also investigated. The qRT-PCR analysis was performed on the same samples used in the previous Example.
# [3] = tested on: tobacco cell cultures (Nicotinium tabacum BY2); conditions: Schoch et al., 2002; cited from earlier work
# [4] = tested on: Pratylenchus penetrans; experiment: Pratylenchus penetrans infection in wheat cv. Sahara (Example 10); assay type: in vivo; conditions: PA foliar spray
# Experimental: as §1
# A pure culture of P. penetrans grown on carrot disks was kindly provided by Giuseppi Lucarelli (Horto Service, Noicattaro, Italy). The nematodes were multiplied by inoculating approximately 100 nematodes on a sterilized carrot disk, placing this disk in a sealed petri dish and incubating the dish at 24° C. for six weeks in the dark. Carrots were sterilized by washing and peeling them, then dipping them in ethanol and finally burning the ethanol off in a Bunsen burner.
# as §2
# Infection experiments with P. penetrans were performed by inoculating host plants 14 days after transfer to SAP by introducing 500 nematodes to their root system using a micro pipette. Plants were harvested 31 days after inoculation. At this point, the plants were phenotyped. Lesions were counted manually using a magnifying glass after washing and spreading open the root system. Nematodes were counted by macerating the root systems with a kitchen blender, placing a root system in 30 ml of autoclaved tap water for 24 hours and finally counting the number of nematodes in four 500 μl aliquots from each 30 ml root suspension under a binocular microscope.
# [5] = tested on: Meloidogyne incognita; experiment: M. incognita infection in DIECA-treated tomato (Example 18); assay type: in vivo; conditions: PA together with DIECA
# Experimental: (§5) Infection experiments with M. incognita were performed in the same manner as those with M. graminicola, except that plants were harvested 31 days after inoculation instead of 14 days. At this point, the plants were phenotyped by measuring the root length with a ruler and in some experiments by measuring leaf area using the EasyLeafArea software (Easlon and Bloom, 2014) and by determining shoot dry mass after 72 hours of drying in an oven at 70° C. Galls were stained and counted as described above.
# To determine whether C4H inhibitors depend on this hormonal pathway, it was tested whether tomato plants treated with the chemical inhibitor of jasmonic acid biosynthesis diethyldithiocarbamate (DIECA) (Farmer et al., 1994) still responded to PA treatment.
# [6] = tested on: carrot; experiment: Phytotoxicity of foliar spray in uninfected carrot (Example 1); assay type: in vivo, Daucus carota; conditions: 500 μM foliar spray, 8 plants per treatment
# Experimental: Carrot seeds, cv. Nantes 2 (Vreeken's Zaden, Dordrecht, the Netherlands) were germinated on wet paper for seven days at 21° C. After germination, seedlings were transferred to individual pots filled with potting soil and placed in a growth chamber at 21° C.
# as §2, §3, §4
# [7] = tested on: Meloidogyne incognita; experiment: Meloidogyne incognita infection in tomato cv. Moneymaker (Example 7); assay type: in vivo
# Experimental: Tomato seeds, cv. Moneymaker (Vreeken's Zaden, Dordrecht, the Netherlands) were sown on autoclaved potting soil coveed with polyethylene film and placed at 24° C. for eight days. Seedlings were then transferred to individual SAP-filled pots and placed in a growth chamber at 24° C. Plants were watered three times per week with 25 ml of quarter-strength Hoagland solution for the first two weeks and half-strength thereafter.
# M. incognita was extracted from infected tomato plants (cv. Moneymaker) roots grown in potting soil at 24° C. Nematodes were collected, counted and inoculated using the same procedure described for M. graminicola above.
# as §2, §5
# Additionally, a possible dose response effect was investigated by applying PA at three concentrations: 100, 400 and 700 μM.
# [8] = tested on: Arabidopsis thaliana seedlings; experiment: Primary root elongation of Arabidopsis thaliana seedlings (IC50-root); assay type: in vivo; conditions: continuous exposure, unpublished data
# [9] = tested on: Alternaria solani, Botrytis cinerea R16, Fusarium graminearum PH1 and Fusarium graminearum GFP; assay type: cell-based
# [10] = infected wheat, mean ± SD, n = 8
structure (smiles),measurement,setting,value
"O=C(O)c1ccc2c(c1)OCO2 [PA, Piperonylic acid]",Root length,[1]; mean ± standard deviation,15.75 ± 2.64 cm
same,Shoot length,[1]; mean ± standard deviation,31.75 ± 2.84 cm
same,BBCH stage,[1]; median ± interquartile range,13 ± 0
same,"Fold change vs. control, OsGNS5 expression",[2],0.41
same,accumulation of salicylic acid,[3],induces the accumulation of the defense hormone salicylic acid
same,Number of lesions,[4]; [10],14.4 ± 6.8
same,Number of nematodes per root system,[4]; [10],165.6 ± 61.1
same,change of mean number of P. penetrans nematodes found in the root system,"[4]; wheat, vs control",−32%
same,change of mean number of root lesions in the host plant,"[4]; wheat, vs control",−39%
same,"change of number of galls, plants treated with both PA and DIECA vs untreated wild type plants",[5],−31%
same,"difference in number of galls, plants treated with both PA and DIECA vs PA-treated wild type plants",[5]; not significant,+14%
same,Leaf Area,[6]; mean ± standard deviation,6.07 ± 2.12 cm^2
same,BBCH stage,[6]; median ± interquartile range,13 ± 0
same,negative effects on growth or development of the tomato plants,"[7]; 100, 400 and 700 μM foliar spray",no negative effects on growth or development
same,"Percent difference of mean number of galls per root system, PA100 vs. PA400","[7]; tomato, 100 μM compared with 400 μM",−9%
same,"Percent difference of mean number of galls per root system, PA100 vs. PA700","[7]; tomato, 100 μM compared with 700 μM",−2%
same,"Percent difference of mean number of galls per root system, PA400 vs. PA700","[7]; tomato, 400 μM compared with 700 μM",+11%
same,"Percent difference of mean number of galls per root system, PA100 vs. CON","[7]; tomato, foliar spray 100 μM",−54%
same,"Percent difference of mean number of galls per root system, PA400 vs. CON","[7]; tomato, foliar spray 400 μM",−50%
same,"Percent difference of mean number of galls per root system, PA700 vs. CON","[7]; tomato, foliar spray 700 μM",−55%
same,IC50,[8],40 µM
same,germination of fungal spores on agar,[9],germinated normally
same,mycelium growth compared to control agar,[9],slight (species-specific) growth retardation
